Patent US5952511A, “Indolin-2-one derivatives” (Chugai Seiyaku Kabushiki Kaisha, priority 1993, dated 1999)

Columns and labels:
[1] = biological target: T1, gastrin receptors (guinea pig gastric glands) (Cavia porcellus, UniProt H0VZC5); assay: Gastrin Receptor Binding Test in Guinea Pig Gastric Glands (Test Example 1); set-up: species or system guinea pig (Hartley, male); settings: inhibition of specific 125I-gastrin I human binding (22.5 pM), 25° C., 45 min
T1 construct: The gastric glands were isolated from the tissue with a pipette; from tissue; host or cells: isolated gastric glands from gastric mucosa of Hartley male guinea pigs
T1 sequence (H0VZC5 1-426): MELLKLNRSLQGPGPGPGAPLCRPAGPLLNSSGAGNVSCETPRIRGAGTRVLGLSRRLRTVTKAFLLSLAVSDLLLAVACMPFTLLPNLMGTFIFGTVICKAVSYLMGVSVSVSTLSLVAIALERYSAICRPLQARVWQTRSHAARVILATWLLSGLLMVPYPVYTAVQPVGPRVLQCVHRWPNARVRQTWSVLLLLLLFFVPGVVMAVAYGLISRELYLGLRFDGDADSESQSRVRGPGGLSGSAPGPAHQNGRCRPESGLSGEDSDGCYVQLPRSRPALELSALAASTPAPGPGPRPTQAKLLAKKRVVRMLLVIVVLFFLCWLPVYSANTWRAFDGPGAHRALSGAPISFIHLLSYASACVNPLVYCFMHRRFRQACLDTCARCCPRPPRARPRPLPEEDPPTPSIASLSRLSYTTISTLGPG
Protocol: Gastrin Receptor Binding Test in Guinea Pig Gastric Glands
Preparation of Gastric Glands:
Guinea pig gastric glands were prepared according to the method of Chang, et al., Biochem. Biophys. Res. Commun., 134, 895 (1986). The gastric mucosa of a Hartley male guinea pig was peeled off. After washing, the mucosa was minced with scissors in buffer A (Eagle's MEM containing 2 mM L-glutamine and 25 mM HEPES; pH 7.4). After washing, the minced tissue was incubated in buffer A containing 0.025% collagenase, 0.01% soy bean trypsin inhibitor, and 0.1% BSA at 37° C. for 60 minutes under 95% O2 and 5% CO2. The gastric glands were isolated from the tissue with a pipette, washed twice with buffer A, and filtered through a mesh. Then, the gastric glands were obtained by centrifugation.
Guinea pig gastric glands were resuspended in buffer B (Hank's solution containing 10 mM HEPES and 0.2% BSA; pH 7.4) (10 ml of buffer B per guinea pig).
To 200 μl of the suspension containing the resuspended isolated gastric glands were added 20 μl of ^125 I-gastrin I human (final concentration: 22.5 pM). Then, 10 μl of a test compound or a solvent (for total binding) or 10 μM Pentagastrin (for nonspecific binding), and buffer B was added there to make a total volume of 1 ml. The reaction mixture was incubated at 25° C. for 45 minutes and then centrifuged at 12000 g. The supernatant was removed by suction, and the radioactivity of the isolated gastric glands was measured with a gamma-counter.
The specific binding of gastrin to gastrin receptors was obtained from a difference between the total binding and the nonspecific binding. The IC50 of the test compound in inhibition of specific binding was calculated.

gastric acid secretion = assay: Inhibitory Activity on Gastric Acid Secretion in Pylorus Ligated Rats (Test Example 2); type: in vivo, rat (Sprague-Dawley, male); settings: Rattus norvegicus, intraduodenal, i.d., 4 h
Protocol: Inhibitory Activity on Gastric Acid Secretion in Pyrolus Ligated Rats
Sprague-Dawley male rats weighing about 200 g were deprived of food for 24 hours while allowed water ad libitum. The abdomen was opened under anesthesia with ethyl ether, the pyrolus ligated, and the abdomen closed. The rats were deprived of food and water for 4 hours until they were surcrified with ethyl ether. The stomach was removed, and gastric juice was collected and measured. The gastric juice was centrifuged at 3000 rpm, and the supernatant was titrated up to pH 7.0 with 0.1N NaOH solution to obtain the acidity of the gastric juice. The amount of the gastric acid output was calculated by multiplying the gastric juice volume by the acidity, and the percent inhibition of acid secretion was obtained according to the following equation. A test compound, suspended in a 3% gum arabic solution, was administered intraduodenally at a dose of 2 ml/kg immediately after the pyrolus ligation.
Inhibition (%)=[(Average amount of gastric acid output in control group--Average amount of gastric acid output in test group)/Average amount of gastric acid secreted […]]×100

## CCOC(CN1C(=O)C(CC(=O)Nc2ccc(C)cc2)(NC(=O)Nc2ccc(OC)cc2)c2ccccc21)OCC (racemic) [Example 79, (RS)-1-(2,2-Diethoxyethyl)-3-(N'-(4-methoxyphenyl)ureido)-3-((4-methylphenyl)aminocarbonylmethyl)indolin-2-one]
[1]
  IC50: 1.9 nM
Gastric acid secretion
  inhibition in vivo at 10 mg/kg: 47%

## CCOC(CN1C(=O)C(CC(=O)Nc2ccc(C)cc2)(NC(=O)Nc2cccc(C)c2)c2ccccc21)OCC (racemic) [Example 81, (RS)-1-(2,2-Diethoxyethyl)-3-((4-methylphenyl)aminocarbonylmethyl)-3-(N'-(3-methylphenyl)ureido)indolin-2-one]
[1]
  IC50: 1.6 nM
Gastric acid secretion
  inhibition in vivo at 10 mg/kg: 59%

## CCOC(CN1C(=O)C(CC(=O)Nc2ccc(C)cc2)(NC(=O)Nc2ccc(F)cc2)c2ccccc21)OCC (racemic) [Example 82, (RS)-1-(2,2-Diethoxyethyl)-3-(N'-(4-fluorophenyl)ureido)-3-((4-methylphenyl)aminocarbonylmethyl)indolin-2-one]
[1]
  IC50: 6.2 nM
Gastric acid secretion
  inhibition in vivo at 10 mg/kg: 56%

## CCOC(CN1C(=O)C(CC(=O)Nc2ccc(C)cc2)(NC(=O)Nc2ccccc2)c2ccccc21)OCC (racemic) [Example 84, (RS)-1-(2,2-Diethoxyethyl)-3-((4-methylphenyl)aminocarbonylmethyl)-3-(N'-phenylureido)indolin-2-one]
[1]
  IC50: 3.4 nM
Gastric acid secretion
  inhibition in vivo at 10 mg/kg: 68%

## CCOC(CN1C(=O)C(CC(=O)Nc2ccc(C)cc2)(NC(=O)Nc2cccc(OC)c2)c2ccccc21)OCC (racemic) [Example 85, (RS)-1-(2,2-Diethoxyethyl)-3-(N'-(3-methoxyphenyl)ureido)-3-((4-methylphenyl)aminocarbonylmethyl)indolin-2-one]
[1]
  IC50: 1.2 nM
Gastric acid secretion
  inhibition in vivo at 10 mg/kg: 72%

## CCOC(CN1C(=O)C(CC(=O)Nc2ccc(C)cc2)(NC(=O)Nc2cccc(Cl)c2)c2ccccc21)OCC (racemic) [Example 89, (RS)-3-(N'-(3-Chlorophenyl)ureido)-1-(2,2-diethoxyethyl)-3-((4-methylphenyl)aminocarbonylmethyl)indolin-2-one]
[1]
  IC50: 5.8 nM
Gastric acid secretion
  inhibition in vivo at 10 mg/kg: 65%

## CCOC(CN1C(=O)C(CC(=O)Nc2ccc(C)cc2)(NC(=O)Nc2cccc(F)c2)c2ccccc21)OCC (racemic) [Example 94, (RS)-1-(2,2-Diethoxyethyl)-3-(N'-(3-fluorophenyl)ureido)-3-((4-methylphenyl)aminocarbonylmethyl)indolin-2-one]
[1]
  IC50: 3.5 nM
Gastric acid secretion
  inhibition in vivo at 10 mg/kg: 70%

## CCOC(CN1C(=O)C(CC(=O)Nc2ccc(F)cc2)(NC(=O)Nc2ccc(C)cc2)c2ccccc21)OCC (racemic) [Example 124, (RS)-1-(2,2-Diethoxyethyl)-3-((4-fluorophenyl)aminocarbonylmethyl)-3-(N'-(4-methylphenyl)ureido)indolin-2-one]
[1]
  IC50: 5.3 nM
Gastric acid secretion
  inhibition in vivo at 10 mg/kg: 54%

## CCOC(CN1C(=O)C(CC(=O)Nc2ccc(N)cc2)(NC(=O)Nc2ccc(C)cc2)c2ccccc21)OCC (racemic) [Example 125, (RS)-3-((4-Aminophenyl)aminocarbonylmethy)-1-(2,2-diethoxyethyl)-3-(N'-(4-methylphenyl)ureido)indolin-2-one]
[1]
  IC50: 2.5 nM
Gastric acid secretion
  inhibition in vivo at 10 mg/kg: 54%

## CCOC(CN1C(=O)C(CC(=O)Nc2ccc(N(C)C(=O)C(F)(F)F)cc2)(NC(=O)Nc2ccc(C)cc2)c2ccccc21)OCC (racemic) [Example 131, (RS)-1-(2,2-Diethoxyethyl) 3-((4-(N-trifluoromethylcarbonyl-N-methylamino)phenyl)aminocarbonylmethyl)-3-(N'-(4-methylphenyl)ureido)indolin-2-one]
[1]
  IC50: 23 nM
Gastric acid secretion
  inhibition in vivo at 10 mg/kg: 65%

## CCOC(CN1C(=O)C(CC(=O)Nc2ncccn2)(NC(=O)Nc2ccc(C)cc2)c2ccccc21)OCC (racemic) [Example 132, (RS)-1-(2,2-Diethoxyethyl)-3-(N'-(4-methylphenyl)ureido)-3-((2-pyrimidinyl)aminocarbonylmethyl)indolin-2-one]
[1]
  IC50: 8.9 nM
Gastric acid secretion
  inhibition in vivo at 10 mg/kg: 52%

## CCOC(CN1C(=O)C(CC(=O)Nc2ccc(OC)cc2)(NC(=O)Nc2cccc(OC)c2)c2ccccc21)OCC (racemic) [Example 148, (RS)-1-(2,2-Diethoxyethyl)-3-((4-methoxyphenyl)aminocarbonylmethyl)-3-(N'-(3-methoxyphenyl)ureido)indolin-2-one]
[1]
  IC50: 1.1 nM
Gastric acid secretion
  inhibition in vivo at 10 mg/kg: 63%

## CCOC(CN1C(=O)C(CC(=O)Nc2ccc(Cl)cc2)(NC(=O)Nc2cccc(OC)c2)c2ccccc21)OCC (racemic) [Example 149, (RS)-3-((4-Chlorophenyl)aminocarbonylmethyl)-1-(2,2-diethoxyethyl)-3-(N'-(3-methoxyphenyl)ureido)indolin-2-one]
[1]
  IC50: 0.93 nM
Gastric acid secretion
  inhibition in vivo at 10 mg/kg: 69%

## CCOC(CN1C(=O)C(CC(=O)Nc2cccc(OC)c2)(NC(=O)Nc2cccc(OC)c2)c2ccccc21)OCC (racemic) [Example 151, (RS)-1-(2,2-Diethoxyethyl)-3-((3-methoxyphenyl)aminocarbonylmethyl)-3-(N'-(3-methoxyphenyl)ureido)indolin-2-one]
[1]
  IC50: 2.9 nM
Gastric acid secretion
  inhibition in vivo at 10 mg/kg: 62%

## CCOC(CN1C(=O)C(CC(=O)Nc2cccc(C)c2)(NC(=O)Nc2cccc(OC)c2)c2ccccc21)OCC (racemic) [Example 152, (RS)-1-(2,2-Diethoxyethyl)-3-(N'-(3-methoxyphenyl)ureido)-3-((3-methylphenyl)aminocarbonylmethyl)indolin-2-one]
[1]
  IC50: 2.1 nM
Gastric acid secretion
  inhibition in vivo at 10 mg/kg: 64%

## CCOC(CN1C(=O)C(CC(=O)Nc2ccc(F)cc2)(NC(=O)Nc2cccc(OC)c2)c2ccccc21)OCC (racemic) [Example 154, (RS)-1-(2,2-Diethoxyethyl)-3-((4-fluorophenyl)aminocarbonylmethyl)-3-(N'-(3-methoxyphenyl)ureido)indolin-2-one]
[1]
  IC50: 1 nM
Gastric acid secretion
  inhibition in vivo at 10 mg/kg: 59%

## CCOC(CN1C(=O)C(CC(=O)Nc2ccc(Cl)cc2)(NC(=O)Nc2ccc(Cl)cc2)c2ccccc21)OCC (racemic) [Example 168, (RS)-3-((4-Chlorophenyl)aminocarbonylmethyl)-3-(N'-(4-chlorophenyl)ureido)-1-(2,2-diethoxyethyl)indolin-2-one]
[1]
  IC50: 2.6 nM
Gastric acid secretion
  inhibition in vivo at 10 mg/kg: 61%

## CCOC(CN1C(=O)C(CC(=O)Nc2ccc(Cl)cc2)(NC(=O)Nc2ccc(OC)cc2)c2ccccc21)OCC (racemic) [Example 169, (RS)-3-(-(4-Chlorophenyl)aminocarbonylmethyl)-1-(2,2-diethoxyethyl)-3-(N'-(4-methoxyphenyl)ureido)indolin-2-one]
[1]
  IC50: 1.9 nM
Gastric acid secretion
  inhibition in vivo at 10 mg/kg: 52%

## CCOC(CN1C(=O)C(CC(=O)Nc2ccc(F)cc2)(NC(=O)Nc2ccc(F)cc2)c2ccccc21)OCC (racemic) [Example 170, (RS)-1-(2,2-Diethoxyethyl)-3-((4-fluorophenyl)aminocarbonylmethyl)-3-(N'-(4-fluorophenyl)ureido)indolin-2-one]
[1]
  IC50: 5.1 nM
Gastric acid secretion
  inhibition in vivo at 10 mg/kg: 63%

## CCOC(CN1C(=O)C(CC(=O)Nc2ccc(C)cc2)(NC(=O)Nc2cccc(OC)c2)c2ccccc21)OCC (single isomer, unassigned; (+)) [Example 188, (+)-1-(2,2-Diethoxyethyl)-3-(4-methylphenyl)aminocarbonylmethyl-3-(N'-(3-methoxyphenyl)ureido)indolin-2-one]
[1]
  IC50: 0.35 nM
Gastric acid secretion; 3 mg/kg
  inhibition in vivo at 3 mg/kg: 76%
